Results taken from patent US6555323B2, “Assay for ABCA1” (Pfizer Inc., priority 2000, dated 2003).

What was measured:
[1] = tested on: ABCA1; assay: Cellular cholesterol efflux to apo-AI from [3H]-cholesterol-labeled J774 macrophages; assay type: cell-based, mouse; settings: 16 hours pretreatment, J774 cells, apo-AI 20 μg/ml acceptor
Method: (§1) Stock cultures of J774 mouse macrophage cell line were grown in RPMI 1640 supplemented with 10% FBS and 50 μg/ml gentamicin at 37° C. in a humidified atmosphere containing 95% air and 5% CO2.
(§2) Cells were seeded in 96 wells (96-well plate, 0.15 ml/well) using 50,000 to 100,000 cells per well and grown in RPMI 1640-10% FBS and 0.5% gentamicin at37° C. for 72 hours to achieve 80-90% confluence. Radiolabeled cholesterol ([1,2-^3H] cholesterol, New England Nuclear) was added to the cells by adding a tracer amount (1-5 μCi/well in a final concentration of 0.1% ethanol) to FBS, which was then diluted to a final concentration of 1% in RPMI. An acyl-CoA cholesterol acyltransferase (ACAT) inhibitor (decanamide, 2-(hexylthio)-N-[6-methyl-2,4-bis(methylthio)-3-pyridinyl]-,(2S)-(9Cl) at 2 μg/ml) was added to the labeling medium. […] Cells were grown in the presence of the radiolabel for two additional days to obtain confluent monolayers. For experiments where cells are enriched in free cholesterol, acetylated LDL (100 μg of protein/ml) was included in the labeling mixture. Following the labeling period, cells were extensively washed using MEM-Hepes medium supplemented with 0.5% gentamicin, and incubated with either cpt-cAMP (positive control) at 0.3 mM or test compounds (varying concentrations may be used, although […] was selected for the present experiment) for an additional 16 hours.
At the end of the pretreatment period with cpt-cAMP or test compounds, cells were extensively washed with MEM-Hepes medium containing gentamicin and incubated in RPMI 1640 medium containing the cholesterol acceptor apo-AI at a final concentration of 20 μg/ml. Parallel monolayers of control or treated cells were also incubated with acceptor-free medium to determine background, non-acceptor mediated cholesterol efflux. Cellular cholesterol efflux was quantified by measuring the release of cellular [^3H]-cholesterol into the medium as a function of time. An aliquot of the incubation medium was filtered using a 0.45 micron Millipore multiscreen plate to remove any floating cells and then counted using a Wallac Microbeta Counter (Perkin-Elmer Life Sciences, Turku, Finland).
The amount of radiolabeled cholesterol released from the cells (% efflux) is determined by the amount of radioactivity present in the incubation medium divided by the radioactivity at time zero (T0). Radtio activty at time zero is calculated as the amount of radioactivity in the cells as determined by isopropanol extraction at the end of the treatment time.

[2] = tested on: ABCA1 mRNA; assay: ABCA1 mRNA level in treated cells; assay type: cell-based, mouse
Method: In the case where the analysis of ABCA1 expression is required, total RNA may be isolated (e.g., by the method according to Chomczynski et al., N. Anal. Biochem., 162:156 (1987)) and ABCA1 mRNA levels determined by standard techniques such as Northern blotting, slot blot hybridization, or Ribonuclease protection assays using ABCA1 specific mRNA probes.
as §1, §2

[3] = tested on: ABCA1; assay: Cellular cholesterol efflux to apo-AI from [3H]-cholesterol-labeled J774 macrophages; assay type: cell-based, mouse; settings: 1 μM, 16 hours pretreatment, J774 cells, apo-AI 20 μg/ml acceptor
[4] = target: T1, acyl-CoA cholesterol acyltransferase (ACAT) (Mus musculus, UniProt Q61263); assay: ACAT inhibition in labeling medium of J774 cells; assay type: cell-based; settings: 2 μg/ml in labeling medium
T1 construct: endogenous in cells; host or cells: J774 mouse macrophage cell line
T1 sequence (Q61263 1-540): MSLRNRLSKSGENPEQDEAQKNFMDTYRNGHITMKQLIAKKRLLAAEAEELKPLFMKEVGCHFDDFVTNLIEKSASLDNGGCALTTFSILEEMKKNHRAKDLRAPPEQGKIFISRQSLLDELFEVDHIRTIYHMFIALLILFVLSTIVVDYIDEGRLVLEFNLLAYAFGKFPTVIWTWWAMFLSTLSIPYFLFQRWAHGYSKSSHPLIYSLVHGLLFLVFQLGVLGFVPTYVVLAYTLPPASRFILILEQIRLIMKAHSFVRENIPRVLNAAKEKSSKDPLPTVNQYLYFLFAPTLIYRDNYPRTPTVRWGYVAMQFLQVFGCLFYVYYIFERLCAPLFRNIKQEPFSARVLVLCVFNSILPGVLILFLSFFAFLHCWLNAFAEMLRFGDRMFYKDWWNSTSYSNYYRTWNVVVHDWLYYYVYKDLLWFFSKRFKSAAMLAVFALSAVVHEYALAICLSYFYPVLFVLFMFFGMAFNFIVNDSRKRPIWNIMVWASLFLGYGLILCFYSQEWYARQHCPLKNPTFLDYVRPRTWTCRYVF
Method: as §2

Row | Structure (SMILES) | % of control (cholesterol efflux) ([1]; 5 μM) | also measured
1 | COc1ccc(-c2cn3c(C)nnc3c(N3CCC4(CC3)C(=O)NCN4c3ccccc3)n2)cc1 | 101 % of control | 
2 | CN(c1ccc(C(O)(C(F)(F)F)C(F)(F)F)cc1)S(=O)(=O)c1ccccc1[N+](=O)[O-] | 185 % of control | % of control mRNA ([2]; 5 μM): 160 % of control
3 | O=S(=O)(c1ccccc1)N(CC(F)(F)F)c1ccc(C(O)(C(F)(F)F)C(F)(F)F)cc1 | 177 % of control | % of control mRNA ([2]; 5 μM): 680 % of control
4 | Cc1nnc2c(N3CCC4(CC3)C(=O)NCN4c3ccccc3)nc(-c3ccc(O)cc3)cn12 | 106 % of control | 
5 | COc1ccc(-c2cn3c(C)nnc3c(N3CCC(C)(N(C)c4cccc(F)c4)CC3)n2)cc1 | 94 % of control | 
6 | COc1ccc(-c2cn3c(C)nnc3c(N3CCC4(CC3)C(=O)NCN4c3ccccc3)n2)cc1OC | 111 % of control | 
7 | Cc1nnc2c(N3CCC4(CC3)C(=O)NCN4c3ccccc3)nc(-c3ccc4c(c3)OCO4)cn12 | 82 % of control | 
8 | COc1cc(-c2cn3c(C)nnc3c(N3CCC4(CC3)C(=O)NCN4c3ccccc3)n2)cc(OC)c1OC | 95 % of control | 
9 | Cc1nnc2n1-c1sccc1C(c1ccccc1)=NC2 | 102 % of control | 
10 | Cc1nnc2c(N3CCC4(CC3)C(=O)NCN4c3ccccc3)nc(-c3ccccc3)cn12 | 109 % of control | 
11 | CCCCC[C@H](O)/C=C/[C@H]1[C@H](O)CC(=O)[C@@H]1CCCCCCC(=O)O [Prostaglandin E1, reference compound] |  | % of control mRNA ([2]; 1 μM): 1420 % of control; % of control (cholesterol efflux) [3]: 210 % of control
12 | Nc1ncnc2c1nc(Sc1ccc(Cl)cc1)n2[C@@H]1O[C@@H]2COP(=O)(O)O[C@H]2[C@H]1O [cpt-cAMP, reference compound] |  | % of control (cholesterol efflux) ([1]; 0.3 mM): 425 % of control; % of control mRNA ([2]; 0.3 mM): 1600 % of control
13 | CCCCCCCC[C@H](SCCCCCC)C(=O)Nc1c(SC)cc(C)nc1SC [decanamide, 2-(hexylthio)-N-[6-methyl-2,4-bis(methylthio)-3-pyridinyl]-,(2S)-(9Cl)] |  | ACAT activity [4]: completely inhibited
